PubChem BioAssay AID1963967 (Molecular Pharmacology Branch, DTP, NCI, 2024)

Tested on: 855422-203-R-J1-PDC spheroids with HUVEC/MSC, viability
Assay: Anticancer human tumor 855422-203-R-J1-PDC patient-derived bladder carcinoma cell line growth inhibition [PI3K]
Details: for IC50: curve of first compound; for viability, T/C: stronger effect = lower value; active means viability on the fitted dose curve at most 10% of control; inactive means the rest
Procedure, shortened: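 High-throughput combination screen: PI3K inhibitors crossed with targeted small molecules on complex spheroids of tumor cells, HUVEC and MSCs at 37 degrees C, 5% CO2. Top concentration was at or near clinical Cmax (otherwise 10 microM), with half-log decrements.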

[1] = second compound 0.00316 µM, first compound 0.0316 µM
[2] = second compound 0.00316 µM, first compound 0.1 µM
[3] = second compound 0.00316 µM, first compound 0.316 µM
[4] = second compound 0.00316 µM, first compound 1 µM
[5] = second compound 0.00316 µM, first compound 3.16 µM
[6] = second compound 0.00316 µM, first compound 10 µM
[7] = second compound 0.01 µM, first compound 0.0316 µM
[8] = second compound 0.01 µM, first compound 0.1 µM
[9] = second compound 0.01 µM, first compound 0.316 µM
[10] = second compound 0.01 µM, first compound 1 µM
[11] = second compound 0.01 µM, first compound 3.16 µM
[12] = second compound 0.01 µM, first compound 10 µM
[13] = second compound 0.0316 µM, first compound 0.0316 µM
[14] = second compound 0.0316 µM, first compound 0.1 µM
[15] = second compound 0.0316 µM, first compound 0.316 µM
[16] = second compound 0.0316 µM, first compound 1 µM
[17] = second compound 0.0316 µM, first compound 3.16 µM
[18] = second compound 0.0316 µM, first compound 10 µM
[19] = second compound 0.1 µM, first compound 0.0316 µM
[20] = second compound 0.1 µM, first compound 0.1 µM
[21] = second compound 0.1 µM, first compound 0.316 µM
[22] = second compound 0.1 µM, first compound 1 µM
[23] = second compound 0.1 µM, first compound 3.16 µM
[24] = second compound 0.1 µM, first compound 10 µM
[25] = second compound 0.316 µM, first compound 0.0316 µM
[26] = second compound 0.316 µM, first compound 0.1 µM
[27] = second compound 0.316 µM, first compound 0.316 µM
[28] = second compound 0.316 µM, first compound 1 µM
[29] = second compound 0.316 µM, first compound 3.16 µM
[30] = second compound 0.316 µM, first compound 10 µM
[31] = second compound 1 µM, first compound 0.0316 µM
[32] = second compound 1 µM, first compound 0.1 µM
[33] = second compound 1 µM, first compound 0.316 µM
[34] = second compound 1 µM, first compound 1 µM
[35] = second compound 1 µM, first compound 3.16 µM
[36] = second compound 1 µM, first compound 10 µM
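Further: agents incubated with spheroids for one week before read-out.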
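Wherever viability, T/C is given: 100% = DMSO vehicle-treated control wells.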

C#Cc1c(F)ccc2cc(O)cc(-c3ncc4c(N5CC6CCC(C5)N6)nc(OCC56CCCN5CC(F)C6)nc4c3F)c12 (stereo not drawn) + COc1c(OCCCN2CCOCC2)ccc2c3n(c(=NC(=O)c4cnc(N)nc4)nc12)CCN3
active: viability, T/C [26] 8.21% | viability, T/C [27] 9.76% | viability, T/C [28] 7.21% | viability, T/C [29] 6.7% | viability, T/C [30] 3.41% | viability, T/C [31] 3.53% | viability, T/C [32] 3.24% | viability, T/C [33] 3.78% | viability, T/C [34] 2.64% | viability, T/C [35] 2.16% | viability, T/C [36] 0.32%
> 10000 nM: IC50 (second compound 0.00316 µM) | IC50 (second compound 0.01 µM) | IC50 (second compound 0.0316 µM)
< 31.6 nM: IC50 (second compound 0.1 µM) | IC50 (second compound 0.316 µM) | IC50 (second compound 1 µM)
inactive: viability, T/C [1] 103% | viability, T/C [2] 86.9% | viability, T/C [3] 105% | viability, T/C [4] 101% | viability, T/C [5] 103% | viability, T/C [6] 107% | viability, T/C [7] 97.7% | viability, T/C [8] 90.9% | viability, T/C [9] 83.3% | viability, T/C [10] 91% | viability, T/C [11] 92.8% | viability, T/C [12] 105% | viability, T/C [13] 57.6% | viability, T/C [14] 65.4% | viability, T/C [15] 62.7% | viability, T/C [16] 60% | viability, T/C [17] 59.5% | viability, T/C [18] 50.4% | viability, T/C [19] 25.9% | viability, T/C [20] 26.7% | viability, T/C [21] 26.5% | viability, T/C [22] 24.8% | viability, T/C [23] 23.8% | viability, T/C [24] 20.4% | viability, T/C [25] 10.8%

C=CC(=O)N1CCN(c2nc(=O)n(-c3c(C)ccnc3C(C)C)c3nc(-c4c(O)cccc4F)c(F)cc23)C(C)C1 (stereo not drawn) + COc1c(OCCCN2CCOCC2)ccc2c3n(c(=NC(=O)c4cnc(N)nc4)nc12)CCN3
active: viability, T/C [25] 9.32% | viability, T/C [26] 8.33% | viability, T/C [27] 10.5% | viability, T/C [28] 10.1% | viability, T/C [29] 11.6% | viability, T/C [30] 7.98% | viability, T/C [31] 3.32% | viability, T/C [32] 4.63% | viability, T/C [33] 3.78% | viability, T/C [34] 3.95% | viability, T/C [35] 3.61% | viability, T/C [36] 1.93%
< 31.6 nM: IC50 (second compound 0.1 µM) | IC50 (second compound 0.316 µM) | IC50 (second compound 1 µM)
inactive: viability, T/C [1] 94% | viability, T/C [2] 90.8% | viability, T/C [3] 116% | viability, T/C [4] 98.8% | viability, T/C [5] 101% | viability, T/C [6] 97% | viability, T/C [7] 82% | viability, T/C [8] 99.4% | viability, T/C [9] 98% | viability, T/C [10] 89.9% | viability, T/C [11] 93.6% | viability, T/C [12] 103% | viability, T/C [13] 52% | viability, T/C [14] 60.2% | viability, T/C [15] 66% | viability, T/C [16] 79.2% | viability, T/C [17] 87.2% | viability, T/C [18] 92.6% | viability, T/C [19] 24.5% | viability, T/C [20] 34.4% | viability, T/C [21] 33.5% | viability, T/C [22] 42.1% | viability, T/C [23] 37.2% | viability, T/C [24] 34.9%
> 10000 nM: IC50 (second compound 0.00316 µM) | IC50 (second compound 0.01 µM) | IC50 (second compound 0.0316 µM)

CC(Cn1ccc(-c2ccc(C#N)c(Cl)c2)n1)NC(=O)c1cc(C(C)O)[nH]n1 (stereo not drawn) + COc1c(OCCCN2CCOCC2)ccc2c3n(c(=NC(=O)c4cnc(N)nc4)nc12)CCN3
active: viability, T/C [25] 7.87% | viability, T/C [26] 8.84% | viability, T/C [27] 7.77% | viability, T/C [28] 9.07% | viability, T/C [29] 10.8% | viability, T/C [30] 7.91% | viability, T/C [31] 5.17% | viability, T/C [32] 4.25% | viability, T/C [33] 3.21% | viability, T/C [34] 3.76% | viability, T/C [35] 4.49% | viability, T/C [36] 3.05%
inactive: viability, T/C [1] 110% | viability, T/C [2] 90.4% | viability, T/C [3] 99.9% | viability, T/C [4] 80.3% | viability, T/C [5] 108% | viability, T/C [6] 86.8% | viability, T/C [7] 91.4% | viability, T/C [8] 83.7% | viability, T/C [9] 87.4% | viability, T/C [10] 103% | viability, T/C [11] 86.6% | viability, T/C [12] 72.8% | viability, T/C [13] 60.4% | viability, T/C [14] 64.4% | viability, T/C [15] 59.8% | viability, T/C [16] 68.7% | viability, T/C [17] 75.3% | viability, T/C [18] 58.6% | viability, T/C [19] 26.6% | viability, T/C [20] 25.5% | viability, T/C [21] 27.3% | viability, T/C [22] 30.1% | viability, T/C [23] 27.9% | viability, T/C [24] 25.3%
< 31.6 nM: IC50 (second compound 0.1 µM) | IC50 (second compound 0.316 µM) | IC50 (second compound 1 µM)
> 10000 nM: IC50 (second compound 0.00316 µM) | IC50 (second compound 0.01 µM) | IC50 (second compound 0.0316 µM)

Cn1nccc1Nc1nccc(-c2ccn(C(CO)c3ccc(Cl)c(F)c3)c(=O)c2)n1 (stereo not drawn) + COc1c(OCCCN2CCOCC2)ccc2c3n(c(=NC(=O)c4cnc(N)nc4)nc12)CCN3
< 31.6 nM: IC50 (second compound 0.1 µM) | IC50 (second compound 0.316 µM) | IC50 (second compound 1 µM)
active: viability, T/C [24] 6.36% | viability, T/C [25] 7.7% | viability, T/C [26] 8.43% | viability, T/C [27] 5.39% | viability, T/C [28] 3.86% | viability, T/C [29] 3.44% | viability, T/C [30] 1.9% | viability, T/C [31] 2.72% | viability, T/C [32] 2.95% | viability, T/C [33] 1.79% | viability, T/C [34] 2.14% | viability, T/C [35] 0.55% | viability, T/C [36] 0.89%
inactive: viability, T/C [1] 94.4% | viability, T/C [2] 91.3% | viability, T/C [3] 106% | viability, T/C [4] 93.5% | viability, T/C [5] 83.7% | viability, T/C [6] 35.7% | viability, T/C [7] 88.8% | viability, T/C [8] 91.7% | viability, T/C [9] 83.3% | viability, T/C [10] 94.7% | viability, T/C [11] 67% | viability, T/C [12] 24.3% | viability, T/C [13] 61% | viability, T/C [14] 59.8% | viability, T/C [15] 53.6% | viability, T/C [16] 51.6% | viability, T/C [17] 38.1% | viability, T/C [18] 12.8% | viability, T/C [19] 25.1% | viability, T/C [20] 22.6% | viability, T/C [21] 22.3% | viability, T/C [22] 17.9% | viability, T/C [23] 10.5%
5010 nM: IC50 (second compound 0.01 µM)
7090 nM: IC50 (second compound 0.00316 µM)
1040 nM: IC50 (second compound 0.0316 µM)
